Read-outs that look alike come from different tables or passages of the source.
Experiments:
isolated rat right atria [1] = experiment: ATX-II-induced arrhythmias in spontaneously beating isolated rat right atria (arrhythmia score); conditions: for IC50: isolated rat right atria, read-out: IC50, prevention of ATX-II induced arrhythmias and diastolic dysfunction
Description: (§1) Rats were anesthetized by intraperitoneal injection of 60 mg/kg ketamine and 8 mg/kg xylazine. The heart was rapidly removed and immersed in oxygenated Krebs-Henseleit buffer (in mmol/L: 118 NaCl, 4.8 KCl, 1.2 KH2PO4, 2.5 CaCl2, 1.2, MgSO4, 2 pyruvic acid, 5.5 glucose, 0.5 Na2EDTA, and 25 NaHCO3, pH 7.4). Rat right atria were quickly excised and suspended in a chamber of the Danish Myo Technologies (DMT) myograph containing 8 ml of oxygenated Krebs-Henseleit buffer. Mechanical and electrical changes were measured simultaneously in spontaneously beating atria. Isometric tension was recorded by a force transducer connected to a PowerLab data acquisition system (AD Instruments, Colorado Springs, Colo.). A bipolar electrode was attached to the surface of the atrium to record an electrogram. After stabilization, the atria were preincubated with a late INa inhibitor (0.1 μmol/L GS967 or 3 μmol/L ranolazine), a CaMKII inhibitor ((0.3 μmol/L AIP or 0.3 μmol/L KN-93) or their combination for 30 min, then treated with 50 nmol/L ATX-II to induce arrhythmias and diastolic dysfunction.
(§2) Isolated right atria beat spontaneously at a rate of 298+12 bpm. ATX-II induced premature beats, tachyarrhythmia and fibrillation in rat isolated right atria. Arrhythmias were recorded for 30 min following ATX-II treatment, and quantified using an arbitrary numerical grading of perceived severity as described previously (32) and shown in Table 1.

isolated rat right atria [2] = experiment: ATX-II-induced increase of diastolic tension in isolated rat right atria; conditions: 3 μM RAN, 0.1 μM GS-967, 0.3 μM KN-93, 0.3 μM AIP, alone or combined, 50 nmol/L ATX-II
Description: as §1

isolated rat right atria [3] = experiment: ATX-II-induced AF in isolated rat right atria; conditions: 3 μmol/L ranolazine, 100 nmol/L GS967, 300 nmol/L KN-93, 300 nmol/L AIP, alone or combined; FIG. 1
Description: as §1, §2

[4] = system: isolated rat atrial myocytes; experiment: ATX-II-induced diastolic Ca2+ increase in isolated rat atrial myocytes; type: cell-based; conditions: 100 nmol/L GS967, 300 nmol/L AIP, alone or combined; FIG. 3
Description: Adult male rats were anesthetized and hearts were rapidly removed and perfused in a retrograde mode (Langendorff preparation) with a modified Tyrode solution containing (in mmol/L): NaCl (135), KCl (4.6), MgCl2 (1.1), NaH2PO4 (1) glucose (10), HEPES (10), pH 7.4. Hearts were perfused for 5 min with a nominal Ca^2+-free Tyrode solution, then with a low Ca^2+ (2 µmol/L) solution containing 0.896 mg/ml collagenase type II (Worthington, USA) and 0.68 mg/ml bovine serum albumin (BSA) for 8-11 min at 37° C. […]
[Molecular Probes, USA], indo-1 AM [Molecular Probes] or 5 μmol/L Asante NaTRIUM Green 2 AM (Teflabs, USA) by incubation for 25 min at 23° C. in bath solution containing 1.0 mmol/L Ca^2+, and 2.5 μmol/L pluronic acid (Molecular Probes). Fluo-4 was excited at 488 nm, and the fluorescence was acquired at wavelengths >505 nm in the line scan mode or XY mode of the confocal system. Asante NaTRIUM Green 2 was excited at 543 nm, and fluorescence was acquired at wavelengths >560 nm in the XY scan mode. Intracellular calcium concentrations were monitored in electrically stimulated cells loaded with indo-1 AM using an IonOptix spectrophotometer (IonOptix, Milton, Mass.). […] Emitted fluorescence (405 nm and 485 nm) was detected by a photomultiplier tube. […] Fluorescent images were analyzed using ImageJ software (NIH) and Origin 8.1 (OriginLab, USA).

late INa [5] = conditions: cited from earlier work
late INa [6] = conditions: isolated hearts; read-out: IC50, ATX-II-induced late INa; cited from earlier work
peak INa = peak INa (Homo sapiens, UniProt Q14524); conditions: cited from earlier work
peak INa, sequence (Q14524 whole entry): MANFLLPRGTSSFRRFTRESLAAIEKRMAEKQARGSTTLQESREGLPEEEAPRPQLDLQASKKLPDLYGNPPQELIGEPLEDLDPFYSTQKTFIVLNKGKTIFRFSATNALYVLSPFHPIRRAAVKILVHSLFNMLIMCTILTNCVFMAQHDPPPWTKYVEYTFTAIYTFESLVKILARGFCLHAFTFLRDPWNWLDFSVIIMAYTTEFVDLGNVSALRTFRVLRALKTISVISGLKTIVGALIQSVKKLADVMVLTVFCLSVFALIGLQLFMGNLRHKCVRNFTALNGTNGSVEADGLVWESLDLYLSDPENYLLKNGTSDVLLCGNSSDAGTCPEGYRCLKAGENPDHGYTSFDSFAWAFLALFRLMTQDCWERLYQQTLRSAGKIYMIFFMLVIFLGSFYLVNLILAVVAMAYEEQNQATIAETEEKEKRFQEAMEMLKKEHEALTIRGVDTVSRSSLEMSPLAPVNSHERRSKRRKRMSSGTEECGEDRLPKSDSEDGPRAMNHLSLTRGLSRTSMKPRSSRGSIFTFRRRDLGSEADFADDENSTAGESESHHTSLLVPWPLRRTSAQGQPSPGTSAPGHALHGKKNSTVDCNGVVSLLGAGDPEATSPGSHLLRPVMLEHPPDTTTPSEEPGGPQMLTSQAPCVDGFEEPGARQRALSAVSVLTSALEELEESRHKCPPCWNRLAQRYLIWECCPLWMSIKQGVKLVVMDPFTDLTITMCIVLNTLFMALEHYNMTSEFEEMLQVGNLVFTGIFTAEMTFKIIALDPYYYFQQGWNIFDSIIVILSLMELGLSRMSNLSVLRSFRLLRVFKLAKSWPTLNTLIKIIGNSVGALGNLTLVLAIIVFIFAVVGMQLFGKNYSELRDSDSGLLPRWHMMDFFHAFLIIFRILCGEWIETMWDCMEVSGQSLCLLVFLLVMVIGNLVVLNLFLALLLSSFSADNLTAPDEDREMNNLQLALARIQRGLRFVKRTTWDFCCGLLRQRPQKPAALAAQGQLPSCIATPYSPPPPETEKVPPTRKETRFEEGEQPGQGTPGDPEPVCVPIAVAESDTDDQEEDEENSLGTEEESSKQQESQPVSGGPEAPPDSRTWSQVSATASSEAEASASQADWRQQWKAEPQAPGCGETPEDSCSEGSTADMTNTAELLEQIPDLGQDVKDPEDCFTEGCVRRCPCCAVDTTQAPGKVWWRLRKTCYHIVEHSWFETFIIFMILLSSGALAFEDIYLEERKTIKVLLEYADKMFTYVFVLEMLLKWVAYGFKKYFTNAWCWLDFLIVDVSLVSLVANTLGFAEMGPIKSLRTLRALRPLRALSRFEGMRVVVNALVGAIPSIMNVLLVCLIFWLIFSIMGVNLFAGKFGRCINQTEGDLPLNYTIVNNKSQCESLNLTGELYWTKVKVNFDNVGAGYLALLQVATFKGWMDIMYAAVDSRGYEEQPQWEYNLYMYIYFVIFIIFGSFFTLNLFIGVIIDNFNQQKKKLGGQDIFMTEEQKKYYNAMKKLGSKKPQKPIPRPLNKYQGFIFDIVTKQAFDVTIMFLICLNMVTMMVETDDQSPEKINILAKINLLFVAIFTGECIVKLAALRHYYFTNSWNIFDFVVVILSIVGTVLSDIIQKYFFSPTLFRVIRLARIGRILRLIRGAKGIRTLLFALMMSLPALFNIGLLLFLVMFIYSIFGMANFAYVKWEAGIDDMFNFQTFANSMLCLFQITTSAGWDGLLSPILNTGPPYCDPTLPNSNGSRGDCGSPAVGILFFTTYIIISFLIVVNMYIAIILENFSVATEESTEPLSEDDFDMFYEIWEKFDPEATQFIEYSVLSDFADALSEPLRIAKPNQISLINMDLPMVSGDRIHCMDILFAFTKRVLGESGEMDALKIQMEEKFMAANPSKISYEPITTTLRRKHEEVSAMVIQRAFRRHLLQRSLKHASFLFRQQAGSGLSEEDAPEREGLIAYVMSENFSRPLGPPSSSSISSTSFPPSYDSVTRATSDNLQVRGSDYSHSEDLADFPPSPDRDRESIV

[7] = system: isolated ventricular myocytes and hearts; conditions: cited from earlier work
[8] = 3 μM RAN, 0.1 μM GS-967, 0.3 μM KN-93, 0.3 μM AIP, alone or combined, 30 min preincubation, then 50 nmol/L ATX-II
[9] = Rattus norvegicus, 3 μM RAN, 0.1 μM GS-967, 0.3 μM KN-93, 0.3 μM AIP, alone or combined, 30 min preincubation, then 50 nmol/L ATX-II, read-out: measured % Inhibition of ATX-II-induced arrhythmias
[10] = Rattus norvegicus, read-out: Measured % Inhibition of ATX-II-induced increase of diastolic tension

SMILES	measured % Inhibition of ATX-II-induced arrhythmias (isolated rat right atria [1]; [8])	inhibition at 0.1 µM (isolated rat right atria [1]; [9])	IC50 (isolated rat right atria [1])	inhibition at 0.1 µM (isolated rat right atria [2]; [10])	effect on ATX-II-induced AF (isolated rat right atria [3])	inhibition of the ATX-II-induced increase of diastolic Ca2+ [4]	IC50 (late INa [5]; ventricular myocytes, read-out: IC50, ATX-II-induced late INa)	reduction of late INa and arrhythmias compared with flecainide or ranolazine (late INa [5]; vs flecainide or ranolazine)	IC50 (late INa [6])	Reduction of peak INa (peak INa; holding potential of −120 mV)	Reduction of peak INa (peak INa; holding potential −80 mV)	proarrhythmic effects (afterdepolarizations and torsades de pointes) of ATX-II and E-4031 [7]	inhibition at 0.3 µM (isolated rat right atria [1]; [9])	effect on ATX-II induced arrhythmias and diastolic dysfunction (isolated rat right atria [1]; rat right atria)	inhibition at 0.3 µM (isolated rat right atria [2]; [10])	measured % Inhibition of ATX-II-induced arrhythmias (isolated rat right atria [1]; 3 μM RAN, 0.1 μM GS-967, 0.3 μM KN-93, 0.3 μM AIP, alone or combined, 30 min preincubation, then 50 nmol/L ATX-II, listed as RAN)	Measured % Inhibition of ATX-II-induced increase of diastolic tension (isolated rat right atria [2])	Measured % Inhibition of ATX-II-induced increase of diastolic tension (isolated rat right atria [2]; listed as RAN)
FC(F)(F)Oc1ccc(-c2ccc3nnc(C(F)(F)F)n3c2)cc1 [GS-967, 6-[4-(trifluoromethoxy)phenyl]-3-(trifluoromethyl)[1,2,4]triazolo[4,3-a]pyridine]	34.2 ± 4.8%	34%	1290 nM	9.1%	failed to attenuate	13%	130 nM	more potent and effective	210 nM	minimal	increased	prevented and reversed						
COc1ccc(S(=O)(=O)N(CCO)c2ccccc2CN(C)C/C=C/c2ccc(Cl)cc2)cc1 [KN-93]	24.1 ± 7.6%				failed to attenuate								23%	prevented	8.4%			
COc1ccccc1OCC(O)CN1CCN(CC(=O)Nc2c(C)cccc2C)CC1 (racemic) [ranolazine, (±)—N-(2,6-dimethylphenyl)-4-[2-hydroxy-3-(2-methoxyphenoxy)-propyl]-1-piperazineacetamide]	28%		14800 nM		failed to attenuate											23.8 ± 3.1%	10.4%	5.5 ± 1.5%

Reference: patent US20140329755A1, “COMBINATION THERAPY FOR THE TREATMENT OF ARRHYTHMIAS OR HEART FAILURE” (Gilead Sciences, Inc., priority 2013, published 2014)
